Measurements reported in patent US8404650B2, “Methods of treating cancer with doxazolidine and prodrugs thereof” (priority 2005, dated 2013).
Like-named read-outs stand apart in the source and are kept apart here.

What was measured:
MCF-7 = test: Growth inhibition of MCF-7 sensitive breast cancer cells (colony formation, crystal violet); type: cell-based, human; conditions: for IC50: Homo sapiens
Procedure: In vitro Activity. […] This cell suspension was dispensed in 200 μL aliquots (1000 cells/well) into the inside wells of 96-well tissue culture plates. Outside wells contained 200 μL of media. […] The medium was replaced with 90 μL of growth medium prior to addition of the drug. Doxaz was dissolved in DMSO at concentrations ranging from 50 μM to 1 mM. […] Serial dilutions (1:3 and 1:10) were made in sterile DMSO to yield seven solutions of decreasing drug concentration at 100× the respective working concentrations. […] Additionally, two lanes were treated with 10 μL of growth medium containing 10% sterile DMSO and one lane was treated with 90 μL of 1.5 M Tris HCl. […]
(§1) Cell growth inhibition experiments initially focused on MCF-7, MCF-7/Adr, SK-HEP-1, and Hep G2 cancer cells as well as rat cardiomyocytes as a measure of cardiotoxicity and Vero cells (green monkey kidney cells) as an additional measure of normal cell toxicity.
(§2) Activity of plasmin-activated prodrugs.
A more thorough characterization of the growth inhibition of a variety of cancer cells as well as rat cardiomyocytes by Formula IV (aFK-PABC-Doxaz) was evaluated in comparison with inhibition of growth by Doxaz, Dox and aFK-PABC-Dox. Cells were treated with drug for 3 h and colony growth was measured at 3 to 5 days when cells reached about 80% confluence. […] The breast cancer cell lines represent the multi-drug resistant (MDR) phenotype with MCF-7/Adr cells and a cell line that is transfected with the gene for urokinase plasminogen activator (uPA), the primary enzyme responsible for cleavage of plasminogen to plasmin. Rat cardiomyocytes served as a model for comparison of drug cardiotoxicity.

SK-HEP-1 = test: Growth inhibition of SK-HEP-1 liver cancer cells; type: cell-based, human; conditions: for IC50: Homo sapiens, SK-HEP1
Description: Cell growth inhibition experiments initially focused on MCF-7, MCF-7/Adr, SK-HEP-1, and Hep G2 cancer cells as well as rat cardiomyocytes as a measure of cardiotoxicity and Vero cells (green monkey kidney cells) as an additional measure of normal cell toxicity. […]

[1] = test system: H9c2(2-1) rat cardiomyocytes; test: Growth inhibition of rat cardiomyocytes as a measure of cardiotoxicity; type: cell-based; conditions: for Toxicity to cardiomyocytes compared with Doxorubicin: rat cardiomyocytes; for IC50: Rattus norvegicus
Procedure: Biological activity of simple Doxazolidine carbamates. Since the prodrug carbamates were designed to be activated by carboxylesterases CES1 (hCE1) and/or CES2 (hiCE), cell lines of interest were measured for expression of the respective mRNAs using reverse transcription (RT) followed by PCR (polymerase chain reaction). Cancer cell lines investigated included SHP-77 resistant small cell lung, DU-145 prostate, MCF-7 sensitive breast, MCF-7/Adr resistant breast, SK-HEP-1 liver, and Hep G2 liver cells. As a measure of possible cardiotoxicity, H9c2(2-1) rat cardiomyocytes were also investigated. Cardiotoxicity is relevant because the ultimate product of metabolism and subsequent hydrolysis of these carbamates is doxorubicin, which is cardiotoxic. […] Additionally, the rat cardiomyocytes, H9c2(2-1), also express more CES2 than CES1.
Cell growth inhibition experiments initially focused on MCF-7, MCF-7/Adr, SK-HEP-1, and Hep G2 cancer cells as well as rat cardiomyocytes as a measure of cardiotoxicity and Vero cells (green monkey kidney cells) as an additional measure of normal cell toxicity. The butyl and pentyl carbamates inhibited the growth of MCF-7, MCF-7/Adr, and SK-HEP-1 cell lines with a 24 h drug treatment period with some selectivity for cancer cells over cardiomyocytes relative to growth inhibition by Dox as shown in Table 2. […] The relative inactivity of the ethyl carbamate may indicate that a substantial lipophilic interaction is required at the active site of the carboxylesterases to hold the Doxaz substrate.
Biological activity of Doxazolidine carbamates with self-eliminating spacer. […] SHP-77 small cell lung cancer cells were also of interest because they express modest amounts of both enzymes. Inhibition of the growth of cardiomyocytes was used as a measure of cardiotoxicity, and inhibition of the growth of Vero cells, green monkey kidney cells, was again used as another measure of toxicity to normal cells. They also show more activity against the cancer cells that express higher levels of CES1. Of particular note is the higher activity against Hep G2 cells than against SK-HEP-1 cells. […] The low toxicity of pentyl PABC-Doxaz to cardiomyocytes relative to the toxicity of Dox is encouraging and consistent with the low level of expression of CES1 in cardiomyocytes.
A more thorough characterization of the growth inhibition of a variety of cancer cells as well as rat cardiomyocytes by Formula IV (aFK-PABC-Doxaz) was evaluated in comparison with inhibition of growth by Doxaz, Dox and aFK-PABC-Dox. Cells were treated with drug for 3 h and colony growth was measured at 3 to 5 days when cells reached about 80% confluence. The cancer cells included one prostate cancer cell line (DU-145), three related breast cancer cell lines (MCF-7, MCF-7/Adr, and MCF-7 uPA), and one pancreatic cancer cell line (Mia PaCa-2). The breast cancer cell lines represent the multi-drug resistant (MDR) phenotype with MCF-7/Adr cells and a cell line that is transfected with the gene for urokinase plasminogen activator (uPA), the primary enzyme responsible for cleavage of plasminogen to plasmin. Rat cardiomyocytes served as a model for comparison of drug cardiotoxicity. Growth inhibition was also measured with added plasmin. aFK-PABC-Doxaz inhibited the growth of most of the cancer cells 0.5 log or more better than did aFK-PABA-Dox. Although not as dramatic, this differential response paralleled the differential response between Doxaz and Dox which is approximately two logs except for the MDR expressing, MCF-7/Adr cells which show more than three logs differential response. […] Addition of 0.01 unit/mL of plasmin has no effect on the activity of Dox but increases the activity of both aFK-PABC-Doxaz and aFK-PABC-Dox, in some cases by more than a log. Addition of 0.01 unit/mL plasminogen increases the activity of aFK-PABC-Doxaz on average by 0.3 log. […]

MDA-MB-435 = test: Growth inhibition of MDA-MB-435 breast cancer cells; type: cell-based; conditions: Homo sapiens
Procedure: In vitro Activity. […] This cell suspension was dispensed in 200 μL aliquots (1000 cells/well) into the inside wells of 96-well tissue culture plates. Outside wells contained 200 μL of media. […] The medium was replaced with 90 μL of growth medium prior to addition of the drug. Doxaz was dissolved in DMSO at concentrations ranging from 50 μM to 1 mM. […] Serial dilutions (1:3 and 1:10) were made in sterile DMSO to yield seven solutions of decreasing drug concentration at 100× the respective working concentrations. […] Additionally, two lanes were treated with 10 μL of growth medium containing 10% sterile DMSO and one lane was treated with 90 μL of 1.5 M Tris HCl. The cells were incubated at 37° C. for 3 h, at which time the drug solutions were replaced with 200 μL of fresh growth medium.
as §2

Vero cells = test: Growth inhibition of Vero cells as a measure of normal cell toxicity (MTT); type: cell-based, green monkey; conditions: for IC50: Chlorocebus sabaeus, Vero
Description: as §1
SHP-77 small cell lung cancer cells were also of interest because they express modest amounts of both enzymes. Inhibition of the growth of cardiomyocytes was used as a measure of cardiotoxicity, and inhibition of the growth of Vero cells, green monkey kidney cells, was again used as another measure of toxicity to normal cells.

[2] = 3 h drug treatment, crystal violet, read-out: Growth inhibition IC50, SK-HEP-1, 3 h (converted)
[3] = H9c2, 3 h, read-out: Growth inhibition IC50, H9c2(2-1), 3 h
[4] = 3 h drug treatment, read-out: Growth inhibition IC50, Vero, 3 h (converted)
[5] = 24 h drug treatment, read-out: Growth inhibition IC50, Vero, 24 h (converted)
[6] = MDA-MB-435, read-out: IC50 MDA-MB-435, top line of the cell
[7] = 24 h drug treatment, crystal violet

SMILES: COc1cccc2c1C(=O)c1c(O)c3c(c(O)c1C2=O)C[C@@](O)(C(=O)CO)C[C@@H]3OC1CC2C(OCN2CN2COC3C(C)OC(O[C@H]4C[C@](O)(C(=O)CO)Cc5c(O)c6c(c(O)c54)C(=O)c4c(OC)cccc4C6=O)CC32)C(C)O1 (stereo partly shown) [DoxF, Doxoform, reference compound]
- IC50 (MCF-7; MCF7, 3 h, read-out: IC50 MCF-7): 2 nM
- IC50 lower than doxorubicin, SK-HEP-1 (SK-HEP-1): more than 25 fold
- Toxicity to cardiomyocytes compared with Doxorubicin [1]: no more toxic to cardiomyocytes than Doxorubicin

SMILES: COc1cccc2c1C(=O)c1c(O)c3c(c(O)c1C2=O)C[C@@](O)(C(=O)CO)C[C@@H]3O[C@H]1C[C@@H]2NCO[C@@H]2[C@H](C)O1 [Doxaz, Doxazolidine]
- IC50 (MCF-7; MCF7, 3 h, read-out: Growth inhibition IC50, MCF-7, 3 h): 3.16 nM
- IC50 (MCF-7; MCF7, read-out: IC50 MCF-7): 3 ± 0.2 nM
- IC50 (MDA-MB-435; MDA-MB-435, 3 h drug treatment, growth at 5 days, read-out: IC50 MDA-MB-435): 7 ± 0.3 nM
- IC50 (SK-HEP-1; [2]): 3.98 nM
- IC50 [1, 3]: 31.6 nM
- Toxicity to cardiomyocytes compared with Doxorubicin [1]: no more cardiotoxic than Doxorubicin
- IC50 (Vero cells; [4]): 6.31 nM
- IC50 (Vero cells; [5]): 7.94 nM

SMILES: COc1cccc2c1C(=O)c1c(O)c3c(c(O)c1C2=O)C[C@@](O)(C(=O)CO)C[C@@H]3O[C@H]1C[C@H](N)[C@H](O)[C@H](C)O1 [Doxorubicin, reference compound]
- IC50 (MCF-7; MCF7, 3 h, read-out: Growth inhibition IC50, MCF-7, 3 h, 3 h drug treatment, crystal violet): 316 nM
- IC50 (MCF-7; MCF7, 3 h, read-out: IC50 MCF-7 + plasmin, + plasmin (15 μg/ml)): 300 nM
- IC50 (MCF-7; MCF7, 24 h, read-out: Growth inhibition IC50, MCF-7, 24 h, 24 h drug treatment, crystal violet): 12.6 nM
- IC50 (MCF-7; MCF7, read-out: IC50 MCF-7, 3 h drug treatment, growth at 5 days): 200 ± 26 nM
- IC50 (MCF-7; MCF7, read-out: IC50 MCF-7, no plasmin or aprotinin added): 300 nM
- IC50 (MDA-MB-435; MDA-MB-435, read-out: IC50 MDA-MB-435): 150 ± 14 nM
- IC50 (MDA-MB-435; [6]): 150 nM
- IC50 (SK-HEP-1; [2]): 100 nM
- IC50 (SK-HEP-1; 24 h drug treatment, crystal violet, read-out: Growth inhibition IC50, SK-HEP-1, 24 h (converted)): 50.1 nM
- IC50 [1, 3]: 31.6 nM
- IC50 ([1]; H9c2, 24 h, read-out: Growth inhibition IC50, H9c2(2-1), 24 h): 20 nM
- IC50 ([1]; H9c2, read-out: IC50 Rat Cardio., top line of the cell): 20 nM
- IC50 (Vero cells; [4]): 1000 nM
- IC50 (Vero cells; [5]): 501 nM

SMILES: COc1cccc2c1C(=O)c1c(O)c3c(c(O)c1C2=O)C[C@@](O)(C(=O)CO)C[C@@H]3O[C@H]1C[C@H]2[C@H](OCN2C(=O)OCc2ccc(NC(=O)[C@H](CCCCN)NC(=O)[C@H](Cc3ccccc3)NC(=O)[C@@H](C)N)cc2)[C@H](C)O1 [Formula IV, D-Ala-L-Phe-L-Lys-p-aminobenzyloxycarbonyl-Doxaz]
- IC50 (MCF-7; MCF7, 3 h, read-out: IC50 MCF-7 + plasmin): 5 nM
- IC50 (MCF-7; MCF7, read-out: IC50 MCF-7): 50 nM
- IC50 (MDA-MB-435; [6]): 240 nM
- IC50 (MDA-MB-435; MDA-MB-435, + plasmin, second stacked value, read-out: IC50 MDA-MB-435 + plasmin): 40 nM
- IC50 ([1]; H9c2, read-out: IC50 Rat Cardio. + plasmin): 40 nM

SMILES: CCCCCOC(=O)Nc1ccc(COC(=O)N2COC3C(C)OC(OC4CC(O)(C(=O)CO)Cc5c(O)c6c(c(O)c54)C(=O)c4c(OC)cccc4C6=O)CC32)cc1 (stereo not shown) [Pentyl PABC-Doxaz, Pentyl 4-(N-doxazolidinylcarbonyloxymethyl)phenylcarbamate]
- Growth inhibition IC50, MCF-7, 24 h (MCF-7; [7]): −5.6 ± 0.3 log of the molar concentration
- Growth inhibition IC50, SK-HEP-1, 24 h (SK-HEP-1; [7]): −6.0 ± 0.06 log of the molar concentration
- Growth inhibition IC50, H9c2(2-1), 24 h [1, 7]: −6.2 ± 0.2 log of the molar concentration
- Growth inhibition IC50, Vero, 24 h (Vero cells; 24 h drug treatment): −6.0 ± 0.04 log of the molar concentration
